{"source": "patent US20150031702A1", "about": "“PI3K INHIBITORS FOR TREATING COUGH” (GlaxoSmithkline Intellectual Property (No.2) Limited, priority 2012, published 2015)", "system": "dissociated dorsal ganglion sensory neurons", "experiment": "Sensitization assay: capsaicin-induced Calcium Imaging response after sensitizing cocktail", "format": "cell-based, mouse", "conditions": "co-incubation with various doses of compound (0.002-1000 nM); sensitizing cocktail NGF, GDNF, PGE2, 1β; 3rd capsaicin-induced peak, Fura-2 f340/f380; FIG. 1", "source_text": "Capsaicin, the active ingredient in pepper sprays, is an irritant that causes noxious respiratory sensations and reflexes including sneezing and coughing in humans. Capsaicin binds to Transient Receptor Potential Vanilloid 1 (TRPV1), whose expression is enriched in both somatic and visceral nociceptors. Exaggerated response to inhaled capsaicin can be seen in subjects with IPF or with cough hypersensitivity syndrome and can be used as a test. Increased reactivity to capsaicin is generally considered a marker of sensitization of nociceptors. Capsaicin effects in sensory neurons dissected from mouse peripheral ganglia can be used as a model to identify nociceptors and to study the sensitization mechanisms in vitro. Response to capsaicin can be quantified in a relatively large population of dissociated sensory neurons using the method of Calcium Imaging. […]\nEach point represents how well the capsaicin-induced peak is reduced by the drug when compared with negative control (1, no sensitizing solution, no GSK-1) and positive control (0, sensitizing solution, no GSK-1). Calculated, it is:\nWhere C=the average relative f340/f380 value of peak 3 for the sensitization control (sensitizing solution, no GSK-1). X=the individual relative f340/f380 value to be calculated, and N=the average relative f340/f380 value of peak 3 for the negative control (no sensitization solution, no GSK-1).", "data": [{"smiles": "COc1ncc(-c2ccc3ncnc(N4CCOCC4)c3c2)cc1NS(=O)(=O)c1ccc(F)cc1F", "note": "[GSK-1, 2,4-difluoro-N-{2-(methyloxy)-5-[4-(4-morpholinyl)-6-quinazolinyl]-3-pyridinyl}benzenesulfonamide]", "values": [{"measurement": "Effect on enhancement of the Calcium Imaging response to capsaicin by the sensitizing cocktail", "value": "dose-dependently abolished"}]}]}
